Experimental data as given in ChEMBL document CHEMBL1136391, “Synthesis and activity of a C-8 keto pleuromutilin derivative” (2003).
In brackets after ≈: the same amount, converted by molar mass.

Tests used:
Format in all cases: functional
[1] = tested on: Haemophilus influenzae; test: Minimum inhibitory concentration against Haemophilus influenzae / Pen+
[2] = tested on: Streptococcus pneumoniae; test: Minimum inhibitory concentration against Streptococcus pneumoniae / Penicillin Resistant
[3] = tested on: Staphylococcus aureus; test: Minimum inhibitory concentration against Staphylococcus aureus / Homo MR
[4] = tested on: Moraxella catarrhalis; test: Minimum inhibitory concentration against Moraxella catarrhalis / Pen+

Row | SMILES | MIC [1] [mg/L] | MIC [2] [mg/L] | MIC [3] [mg/L] | MIC [4] [mg/L]
1 | C=C[C@]1(C)C[C@@H](OC(=O)Nc2ccc(OC)cc2)[C@]2(C)C(C)CC[C@]3(CCC(=O)[C@H]32)[C@@H](C)[C@@H]1O (stereo partly drawn) | 4 (≈ 8.52 µM) | 0.003 (≈ 0.00639 µM) | 0.003 (≈ 0.00639 µM) | 0.125 (≈ 0.266 µM)
2 | C=C[C@]1(C)C[C@@H](OC(=O)Nc2ccc(OC)cc2)[C@]2(C)C(C)CC(=O)[C@]3(CCC(=O)[C@H]32)[C@@H](C)[C@@H]1O (stereo partly drawn) | 64 (≈ 132 µM) | 32 (≈ 66.2 µM) | 32 (≈ 66.2 µM) | 64 (≈ 132 µM)
